Results from paper PMC8522722, “Safety and Pharmacokinetics in Human Volunteers of Taniborbactam (VNRX-5133), a Novel Intravenous β-Lactamase Inhibitor” (Antimicrobial Agents and Chemotherapy, 2021).

Columns and labels:
[1] = test system: cefepime-resistant β-lactamase-producing pathogens; set-up: method as in ref 15, 16 = [15]; 15 Georgiou P-C , Siopi M , Tsala M , Lagarde C , Kloezen W , Donnelly R , Meletiadis J , Mouton J . 2018 . VNRX-5133, a novel broad-spectrum beta-lactamase inhibitor, enhances the activity of cefepim || [16]; 16 Weiss W , Pulse M , Nguyen P , Valtierra D , Peterson K , Carter K , Pevear D , Burns C , Xerri L . 2018 . Efficacy of cefepime/VNRX-5133, a novel beta-lactamase inhibitor combination, against ceph; settings: cited from earlier work
[2] = test system: Enterobacterales isolates; set-up: method as in ref 13, 14 = [13]; 13 Vidales A , Hackel M , Wise M , Sahm D . 2020 . Antimicrobial activity of cefepime in combination with taniborbactam (formerly VNRX-5133) against clinical isolates of Enterobacterales collected fro || [14]; 14 Kalamatas J , Hackel M , Wise M , Sahm D . 2020 . Antimicrobial activity of cefepime in combination with taniborbactam (formerly VNRX-5133) against a 2018–2019 surveillance collection of Pseudomona; settings: cited from earlier work
[3] = Single-ascending-dose (SAD) pharmacokinetics in plasma and urine, healthy adult volunteers; type: in vivo, human; settings: for Tmax: median (range); for Fe: excreted unchanged in urine over 48 h; for Ae: urine over 48 h
Experimental: Eligible subjects were randomized to receive either taniborbactam or placebo in a 3:1 ratio within dose cohorts in both the SAD and MAD parts of the study. Each dose cohort in the SAD part of the study enrolled 8 subjects, and each dose cohort in the MAD part of the study enrolled 12 subjects. In the SAD part, subjects received 62.5, 125, 250, 500, 1,000, or 1,500 mg taniborbactam as a 2-h intravenous (i.v.) infusion. In the MAD part, subjects received 2-h intravenous i.v. infusions of 250, 500, or 750 mg taniborbactam q8h over 10 days, ending after a final morning dose on day 10 (total of 28 doses).
Blood samples for assay of taniborbactam in plasma were collected predose and at 1, 2, 2.25, 2.5, 2.75, 3, 4, 6, 8, 12, 26, and 50 h after the start of drug infusion in the SAD part. For the MAD part, blood samples to determine taniborbactam plasma concentrations were collected predose and at 1, 2, 2.25, 2.5, 2.75, 3, 4, 6, and 8 h following the first dose (day 1) and predose and at 1, 2, 2.25, 2.5, 2.75, 3, 4, 6, 10, 14, and 26 h following the last dose (day 10). Urine was collected predose and at intervals of 0 to 4, 4 to 8, 8 to 24, and 24 to 48 h after the start of the infusion in the SAD part for the higher-dose groups (500 to 1,500 mg taniborbactam). For the MAD part, urine was collected through the dosing interval following the last dose using collection intervals of 0 to 4 and 4 to 8 h after the start of the infusion. At the end of each urine collection interval, the volume of each urine collection was recorded and a sample was taken.
Plasma and urine samples were assayed for taniborbactam and screened for possible metabolites. Human dipotassium ethylenediaminetetraacetic acid (K2EDTA) plasma samples were processed using protein precipitation and assayed using ultra-high-performance liquid chromatography with tandem mass spectrometric detection (LC-MS/MS). Both low- and high-range methods were developed and validated for plasma samples, with calibration ranges of 5 to 5,000 ng/ml and 100 to 100,000 ng/ml, respectively. Acidified urine samples were processed using solid-phase extraction and assayed using a validated LC-MS/MS method with a calibration range of 5.0 to 5,000 ng/ml. For both matrices, separation was accomplished using a Waters Acquity HSS T3 column (Milford, MA) at 50°C, and gradient elution using 10 mM ammonium formate with 1% formic acid as mobile phase A and 50:50:1 acetonitrile:methanol:formic acid (vol/vol/vol) as mobile phase B. A triple quadrupole mass spectrometer (API Triple Quad 5500; AB Sciex, Framingham, MA) equipped with a turbo-ion spray set was used for detection in positive ion mode, and quantification was based on multiple reaction monitoring. The internal standard used in the assays was D4-taniborbactam.
Individual subject plasma and urine taniborbactam pharmacokinetic parameters were evaluated using noncompartmental analysis methods (Phoenix WinNonlin, Certara, Princeton, NJ). Single-dose pharmacokinetic parameters were determined in the SAD part, and both single-dose (day 1) and multiple-dose (day 10) pharmacokinetic parameters were determined in the MAD part. Estimated pharmacokinetic parameters included Cmax, time to Cmax (Tmax), AUCtau, AUC0–inf, t1/2, CL, VZ, Ae, Fe, and CLR. The actual sample times were used to calculate the pharmacokinetic parameters. Calculation of λZ was based on best fit of concentrations in the observed terminal elimination phase of a profile, and statistical inclusion of any parameter based on λZ required the goodness of fit statistic (R^2) to be greater than 0.8. Pharmacokinetic data were summarized using descriptive statistics by treatment. Dose proportionality based on Cmax and AUC was determined using linear regression to calculate the slope and 90% CI and observing whether a slope of 1 was included in the confidence interval. The dose proportionality analysis included subject body weight as a covariate in the analysis.

[4] = single dose 62.5 mg, 2-h i.v. infusion, mean (%CV)
[5] = single dose 125 mg, 2-h i.v. infusion, mean (%CV)
[6] = single dose 250 mg, 2-h i.v. infusion, mean (%CV)
[7] = single dose 500 mg, 2-h i.v. infusion, mean (%CV)
[8] = single dose 1,000 mg, 2-h i.v. infusion, mean (%CV)
[9] = single dose 1,000 mg, mean (%CV)
[10] = single dose 1,500 mg, 2-h i.v. infusion, mean (%CV)
[11] = single dose 1,500 mg, mean (%CV)

Which results are given for `NCCN[C@H]1CC[C@H](CC(=O)N[C@H]2Cc3cccc(C(=O)O)c3OB2O)CC1` [Taniborbactam]?
in vivo efficacy of cefepime [1]: restored the in vivo efficacy of cefepime; potentiation of cefepime activity as measured by the MIC90 [2]: at least 128 fold; t1/2 ([3]; higher single-dose groups (500 to 1,500 mg)): ~5.7 h; AUCinf [3, 4]: 11,284 (13.3) h · ng/ml; CL [3, 4]: 5.6 (14.1) liters/h; Cmax [3, 4]: 3,398 (17.0) ng/ml; Vz [3, 4]: 28.4 (18.7) liters; Tmax ([3]; single dose 62.5 mg, 2-h i.v. infusion): 2.0 (2.0, 2.0) h; t1/2 ([3]; single dose 62.5 mg, 2-h i.v. infusion, terminal elimination, mean (%CV)): 3.5 (9.3) h; AUCinf [3, 5]: 20,326 (13.7) h · ng/ml; CL [3, 5]: 6.2 (12.6) liters/h; Cmax [3, 5]: 5,023 (13.8) ng/ml; Vz [3, 5]: 30.2 (14.2) liters; Tmax ([3]; single dose 125 mg, 2-h i.v. infusion): 2.0 (2.0, 2.0) h; t1/2 ([3]; single dose 125 mg, 2-h i.v. infusion, terminal elimination, mean (%CV)): 3.4 (5.8) h; AUCinf [3, 6]: 41,106 (19.0) h · ng/ml; CL [3, 6]: 6.3 (17.5) liters/h; Cmax [3, 6]: 11,533 (13.8) ng/ml; Vz [3, 6]: 34.6 (17.1) liters; Tmax ([3]; single dose 250 mg, 2-h i.v. infusion): 2.0 (2.0, 2.0) h; t1/2 ([3]; single dose 250 mg, 2-h i.v. infusion, terminal elimination, mean (%CV)): 4.0 (31.1) h; AUCinf [3, 7]: 82,499 (9.2) h · ng/ml; CL [3, 7]: 6.1 (9.0) liters/h; Cmax [3, 7]: 22,650 (11.4) ng/ml; Vz [3, 7]: 50.2 (12.1) liters; Tmax ([3]; single dose 500 mg, 2-h i.v. infusion): 2.0 (2.0, 2.0) h; t1/2 ([3]; single dose 500 mg, 2-h i.v. infusion, terminal elimination, mean (%CV)): 5.7 (4.3) h; Fe ([3]; single dose 500 mg, mean (%CV)): 64.1 (9.6) %; Fe ([3]; single dose 500 mg, mean (%CV), listed as taniborbactam): 64.1%; CLR ([3]; single dose 500 mg, mean (%CV)): 3.9 (15.5) liters/h; Ae ([3]; single dose 500 mg, mean (%CV)): 320.6 (9.6) mg; AUCinf [3, 8]: 156,542 (15.7) h · ng/ml; CL [3, 8]: 6.5 (15.7) liters/h; Cmax [3, 8]: 43,317 (14.8) ng/ml; Vz [3, 8]: 54.0 (17.9) liters; Tmax ([3]; single dose 1,000 mg, 2-h i.v. infusion): 2.0 (2.0, 2.1) h; t1/2 ([3]; single dose 1,000 mg, 2-h i.v. infusion, terminal elimination, mean (%CV)): 5.7 (3.3) h; Fe [3, 9]: 76.7 (9.4) %; Fe ([3]; single dose 1,000 mg, mean (%CV), listed as taniborbactam): 76.7%; CLR [3, 9]: 5.0 (16.7) liters/h; Ae [3, 9]: 766.9 (9.4) mg; AUCinf [3, 10]: 263,422 (17.8) h · ng/ml; CL [3, 10]: 5.9 (19.2) liters/h; Cmax [3, 10]: 71,817 (16.3) ng/ml; Vz [3, 10]: 49.4 (21.6) liters; Tmax ([3]; single dose 1,500 mg, 2-h i.v. infusion): 2.0 (2.0, 2.0) h; t1/2 ([3]; single dose 1,500 mg, 2-h i.v. infusion, terminal elimination, mean (%CV)): 5.8 (6.2) h; Fe [3, 11]: 66.6 (12.9) %; Fe ([3]; single dose 1,500 mg, mean (%CV), listed as taniborbactam): 66.6%; CLR [3, 11]: 3.9 (16.8) liters/h; Ae [3, 11]: 998.7 (12.9) mg; half-life of the earlier phase that characterizes the majority of exposure ([3]; single doses, also seen within dose intervals on multiple dosing): about 2 h
